Here are results for 8 compounds from patent publication US10744119B1, “Inhibitors of the malarial GST” (University of Puerto Rico, priority 2014, dated 2020).

Read-outs that look alike come from different tables or passages of the source.

The subject of assay [1] is P. berghei blood stages. The following applies: read-out: EC50, published results; published value; cited from earlier work.
The target of another assay is P. berghei GST (pbGST) (Plasmodium berghei, UniProt A0A509AJX5). Put plainly: Inhibition of GST activity (CDNB/GSH, 340 nm) in P. berghei protein extracts. The format is biochemical. The settings on record: for inhibitory activity on pbGST: 1, 10 and 50 μM, duplicate (n=2), more marked effect at 50 μM. As to the method: Glutathione S-transferase Activity in Blood Stage Parasites: The parasite extracts were prepared as the method described in the Protein for Enzymatic Activity. The enzymatic activity was determined spectroscopically using the chromogenic substrate 1-chloro-2,4-dinitrobenzene (CDNB) from Sigma-Aldrich®. The GST activity was assayed at 25° C. in P. berghei protein extracts by monitoring the increase in absorbance at 340 nm on the basis of the extinction coefficient for the product S-(2,4-dinitrophenyl) glutathione (ε340 nm=9.6 mM^−1 cm^−1). The absorbance was measured in a 96-well plate (UV flat bottom Microtiter®, from Thermo Scientific) using the SpectraMax® M3 Microplate Reader (Molecular Devices). The parasite extract (0.65 mg/mL) and 1 mM CDNB were added to a 100 mM potassium phosphate (pH 6.5) buffer. The reaction was started by adding 1 mM GSH. To detect any residual GST activity associated with the parasite extract, blank reactions as controls (no GSH) were included. The Enzyme activity is reported as units (micromole of GSH/min)/mg of protein. This assay was standardized using the human placenta GST from Sigma-Aldrich® (Cat No. G8642) and used as positive control.
The compounds stock solutions were prepared in 100% DMSO. […] The half maximal inhibitory concentration (IC50) values were calculated using the non-linear regression function for sigmoidal dose-response (variable slope). Inhibition curves of pbGST was done in two independent experiments with one replicate each (n=2) whereas the inhibition curves of hGST was determined in three independent experiments in triplicate (n=9). […] GraphPad Prism software (Graph-Pad software, Inc., US, Mac Version 6) was used to make the graph and to perform the statistical analyses.
The GSK TCAMS compounds dilutions were prepared in DMSO and the final concentration of DMSO in the assay was 0.5%. Inhibition of pbGST by the GSK TCAMS compounds were determined by adding variable concentration of compounds (1, 10 and 50 μM) with a fixed P. berghei protein extracts concentration (0.65 mg/mL) in a total volume of 200 μL containing 1 mM CDNB and 100 mM potassium phosphate buffer (pH 6.5) at 25° C. The reaction was started by adding 1 mM GSH and activity was measured spectroscopically at 340 nm absorbance. The data obtained by varying compound concentration was analyzed using a column bar graph. Inhibition of pbGST by the GSK TCAMS compounds was done in duplicate. One GSK TCAMS compound, TCMDC-124132, was analyzed against the hGST in two independent experiments in triplicate (n=6). A statistical analysis was done using the GraphPad Prism software (Graph-Pad software, Inc., US, Mac Version 6). […]

For assay [2], the system named is P. berghei blood stages. Put plainly: Plasmodium berghei in vitro drug luminescence (ITDL) assay. It is filed as cell-based. The settings on record: read-out: EC50, growth inhibition of P. berghei blood stages. As to the method:
The compounds were received as 10 mM stocks dissolved in 100% DMSO. These stocks were stored at −20° C. The DMSO stock compounds were diluted in complete culture medium (RPMI1640 medium supplemented with 20% FBS from Gibco® heat-inactivated and Neomycin stock solution of 10,000 IU/mL from Sigma-Aldrich®) for use in the Plasmodium berghei in vitro drug luminescence assay. For initial testing, the compounds were used at the following concentration: 0.01 μM, 0.1 μM, 1 μM and 10 μM; in triplicate point to determine the inhibition curve for each compound.
This assay measures the in vitro development of P. berghei ring stage into mature schizonts in the presence of inhibitors/drugs. The Swiss-CD1 female mice were infected with the GFP-luc parasite line. The GFP-luc parasite line allows determination of the luciferase activity in the cultured mature schizonts, which is directly proportional to the number of schizonts. When the parasitemia reaches 1-3%, the RBCs were collected from the infected mice and used to perform the assay. The susceptibility of blood stages parasites was determined in the presence of standard GST inhibitors and the TCAMS compounds identified from the VLS. […] The standard GST inhibitors were weighed and dissolved in 100% DMSO to prepare the stock solution. Dilutions of the standard GST inhibitors were freshly prepared in complete culture medium (RPMI1640 medium supplemented with 20% FBS from Gibco® heat-inactivated and Neomycin stock solution of 10,000 IU/mL from Sigma-Aldrich®) for each assay. The dilutions of the inhibitors were added to the wells in triplicates, 50 μL per well. Chloroquine diphosphate salt from Sigma-Aldrich® was used as a control (at a concentration of 100 nM) for complete inhibition of blood stage development. Further, infected blood was collected from one mouse by cardiac puncture under anesthesia early in the morning (between 9:00-10:[…]). The blood was added to a 50 mL tube containing 5 mL complete culture medium supplemented with 300 μL heparin stock solution (25,000 U/mL). The blood was centrifuged for 8 min at 450×g and the supernatant was removed. The blood was resuspended in a complete culture medium comprising a concentration of 2% (v/v). In the next step, 50 μL of the blood suspension was added in each well containing the inhibitors dilutions. The 96-well black culture plates containing the infected blood solution were placed into a candle jar. The candle jar was carefully flushed with a gas mixture of 5% CO2, 5% O2, 90% N2 using a 0.22 μm filter unit connected to the gas hose for 2 minutes. The lid was tightly closed immediately after gassing. The infected blood suspension was incubated at 37° C. with continuous agitation (enough to keep the cells suspended) for 24 hours allowing the ring stages to develop into the mature schizonts. After the culture period, the schizonts were evaluated by microscopic examination of Diff Quick-stained thin blood smears. The 96-well plate was centrifuged at 1,000×g for 5 minutes. The supernatant was removed using a syringe needle on those sides of the wells without red blood cell after spinning. The luciferase activity was measured in cultured mature schizonts using the Luciferase Assay System Kit from Promega (Cat. No. E1500). The RBCs were lysed by adding 50 μL of 1× cell culture lysis reagent into each well. The plate was shaken for 5 minutes to assure complete lysis. Afterward, 50 μL of the luciferase assay reagent was added. The luminescence was measured using the SpectraMax® M3 Microplate Reader (Molecular Devices). […] The data was analyzed and used to generate standard in vitro inhibition curves, and EC50 values of each compound were calculated. Preliminary data analyses were performed using Microsoft Excel and the effective concentration (50% of the maximal inhibition; EC50 values) were calculated using GraphPad Prism software (Graph-Pad software, Inc., US, Mac Version 6).

In assay [3] the target is T1, human placenta GST (hGST) (Homo sapiens, UniProt P09211).
T1 construct: the human placenta GST from Sigma-Aldrich® (Cat No. G8642); purchased Sigma-Aldrich G8642; host or cells: human placenta (tissue-derived)
Put plainly: Inhibition of GST activity (CDNB/GSH, 340 nm) of human placenta GST. It is filed as biochemical. As to the method: Glutathione S-transferase Activity in Blood Stage Parasites: The parasite extracts were prepared as the method described in the Protein for Enzymatic Activity. The enzymatic activity was determined spectroscopically using the chromogenic substrate 1-chloro-2,4-dinitrobenzene (CDNB) from Sigma-Aldrich®. The GST activity was assayed at 25° C. in P. berghei protein extracts by monitoring the increase in absorbance at 340 nm on the basis of the extinction coefficient for the product S-(2,4-dinitrophenyl) glutathione (ε340 nm=9.6 mM^−1 cm^−1). The absorbance was measured in a 96-well plate (UV flat bottom Microtiter®, from Thermo Scientific) using the SpectraMax® M3 Microplate Reader (Molecular Devices). […]
The compounds stock solutions were prepared in 100% DMSO. […] The half maximal inhibitory concentration (IC50) values were calculated using the non-linear regression function for sigmoidal dose-response (variable slope). Inhibition curves of pbGST was done in two independent experiments with one replicate each (n=2) whereas the inhibition curves of hGST was determined in three independent experiments in triplicate (n=9). […]
The GSK TCAMS compounds dilutions were prepared in DMSO and the final concentration of DMSO in the assay was 0.5%. […] The reaction was started by adding 1 mM GSH and activity was measured spectroscopically at 340 nm absorbance. […]

The mark [4] stands for this setting: ring stage to mature schizont development, 24 hours, luciferase readout, three independent experiments.

P. berghei GST (pbGST), sequence (A0A509AJX5 entry or part of it): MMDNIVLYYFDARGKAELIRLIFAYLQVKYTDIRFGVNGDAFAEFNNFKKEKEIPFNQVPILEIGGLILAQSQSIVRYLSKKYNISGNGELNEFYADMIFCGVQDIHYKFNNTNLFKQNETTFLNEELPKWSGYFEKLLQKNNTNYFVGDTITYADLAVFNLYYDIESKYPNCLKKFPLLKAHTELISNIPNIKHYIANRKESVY
T1 sequence (P09211 2-210 limits assumed): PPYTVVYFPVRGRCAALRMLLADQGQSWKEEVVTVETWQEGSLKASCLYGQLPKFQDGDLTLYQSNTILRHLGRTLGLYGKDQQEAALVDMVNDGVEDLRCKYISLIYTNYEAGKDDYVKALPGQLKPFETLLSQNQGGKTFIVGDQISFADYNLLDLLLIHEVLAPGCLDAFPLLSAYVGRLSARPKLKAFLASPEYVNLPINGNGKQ

For the compound `CCN(CC)CCCC(C)Nc1ccnc2cc(Cl)ccc12` (centres unmarked) [Chloroquine], the EC50 in the assay on P. berghei blood stages [1] was 0.02 µM.

As for `COc1ccc2nccc([C@@H](O)CN3CCC(NC(=O)c4cc5c(F)cc(F)cc5[nH]4)CC3)c2n1` [Compound 6], the “inhibitory activity on pbGST” value against P. berghei GST (pbGST) is “No inhibitory activity”. For the same compound, the concentration giving a half-maximal response (EC50) with P. berghei blood stages [2] (setting [4]) is 1.48 µM.

For the compound `c1ccc2[nH]c(CN(Cc3nc4ccccc4[nH]3)Cc3nc4ccccc4[nH]3)nc2c1` [Compound 8], in assay [3] (at 50 μM and 100 μM, statistical difference at 100 μM, n=6), the “inhibitory activity on human placenta GST” value is recorded as “tendency of inhibition”. In addition, the “inhibitory activity on pbGST” value against P. berghei GST (pbGST) is reported as “tendency of inhibition”. Besides, the EC50 in the assay on P. berghei blood stages [2] (setting [4]) turned out to be 1.15 µM.

On to `Oc1ccc(CCNc2nc(NCc3ccccc3-c3ccc(C(F)(F)F)cc3)nc(N3CCNCC3)n2)cc1` [Compound 12], for which the 50% effective concentration (EC50) in the assay with P. berghei blood stages [2] (setting [4]) stood at 3.03 µM. As for `CCCCCCSC[C@H](NC(=O)CC[C@H](N)C(=O)O)C(=O)NCC(=O)O` [S-hexylglutathione, reference compound], the inhibition at 50 µM (in assay [3] (50 μM compound); against P. berghei GST (pbGST) (50 μM compound)) was 50% throughout. For the same compound, in the assay with P. berghei blood stages [2] (Plasmodium berghei, 24 h), the concentration giving a half-maximal response (EC50) is 6.86 µM. With `O=C1Nc2cccc3c2C1(CCCCN1CCC(c2cc4ccncc4[nH]2)CC1)CCC3` (centres unmarked) [TCMDC-141151/TCMDC-141221], the “inhibitory activity on pbGST” value against P. berghei GST (pbGST) is recorded as “No inhibitory activity”. Also, in the assay with P. berghei blood stages [2] (setting [4]), the concentration for a half-maximal effect (EC50) was found to be 1.04 µM. Consider `COc1cc(/C=C/C(=O)CC(=O)/C=C/c2ccc(O)c(OC)c2)ccc1O` [curcumin, reference compound], for which the EC50 in the assay with P. berghei blood stages [2] (Plasmodium berghei, 24 h) is 15 µM. In the case of `C=C(CC)C(=O)c1ccc(OCC(=O)O)c(Cl)c1Cl` [ethacrynic acid, reference compound], in the assay on P. berghei blood stages [2] (Plasmodium berghei, ring stage to mature schizont development, 24 hours, luciferase readout, three independent experiments), the 50% effective concentration (EC50) came to 14.7 µM.
